Measurements: patent US8829014B2, “Thiazole and thiophene analogues, and their use in treating autoimmune diseases and cancers” (Board of Supervisors of Louisiana State University and …, priority 2006, dated 2014)
Where two headings read alike, the source gives them in different places.

What was measured:
[1] = tested on: carageenan-induced edema; test: Carrageenan-induced rat paw edema test (anti-inflammatory activity); assay type: in vivo, Sprague-Dawley rats; settings: for inhibition in vivo at 50 mg/kg: Rattus norvegicus, po, 3 h
In short: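 Edema was raised by sub-plantar injection of 1% carrageenan into the right hind paw, 1 h after dosing 18 h-fasted male/female Sprague-Dawley rats (150-250 g) with 50 mg/kg p.o. in 0.1% CMC. Swelling was measured by displacement 3 h later and expressed as % protection against saline control.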

[2] = tested on: NF-κB; test: TNF-α-induced NF-κB-dependent luciferase expression in HEK cells; assay type: cell-based; settings: 1 uM; luciferase in HEK/NF-κB cells, as described in Example 398
[3] = tested on: AP-1; test: PMA-induced AP-1 luciferase expression in HEK cells; assay type: cell-based; settings: 1 uM; luciferase in HEK/AP-1 cells, as described in Example 398
[4] = rat paw edema, 50 mg/kg, reading 3 hours after carrageenan, [(Control−Test)/Control]×100%
[5] = rat paw edema, 50 mg/kg, reading 3 hours after carrageenan, [(Control−Test)/Control]×100%, read-out: % Protection P
[6] = rat paw edema, 50 mg/kg, reading 3 hours after carrageenan, [(Control−Test)/Control]×100%, 50 mg/kg
[7] = carrageenan-induced rat paw edema, defined in Example 397, read-out: % Protection

Compound	inhibition in vivo at 50 mg/kg [1, 5] [%]	further results
CC(=O)Nc1ccc(-c2cc(-c3nc4ccccc4c(=O)n3-c3ccccc3)sc2N2CCOCC2)cc1 [Example 274, N-{4-[2-Morpholin-4-yl-5-(4-oxo-3-phenyl-3-,4-dihydro-quinazolin-2-yl)-thiophene-3-yl]-phenyl}-acetamide]	–	% Protection P [1, 4]: 28%; NFkB inhibition @ 1 uM [2]: 29
(5-Morpholin-4-yl-4-pyridin-3-yl-thiophene-2-yl)-phenyl-methanone [Example 90]	–	AP-1 inhibition @ 1 uM [3]: 59.49; % Protection P [1, 4]: 6.09%; NFkB inhibition @ 1 uM [2]: 7.91
Bis-[2-(2-furoyl-amino)-4-benzayl-thiazole-5-yl]-methanone [Example 136]	–	AP-1 inhibition @ 1 uM [3]: 32.23; % Protection P [1, 4]: 45.13%; NFkB inhibition @ 1 uM [2]: 44.46
O=c1c2ccccc2nc(-c2cc(-c3ccncc3)c(N3CCOCC3)s2)n1-c1ccccc1 [Example 277]	–	AP-1 inhibition @ 1 uM [3]: 38; % Protection P [1, 4]: 65%
Cc1ccc(C(=O)c2sc(N3CCN(C(=O)c4ccco4)CC3)nc2-c2ccccc2)cc1 [Example 381, {2-[4-(Furan-2-carbonyl)-piperazin-1-yl]-4-phenyl-thiazol-5-yl}-tolyl-methanone]	–	AP-1 inhibition @ 1 uM [3]: 10.42; % Protection P [1, 4]: 53%
O=C(Nc1ccc(F)cc1)Nc1nc(Nc2ccc(Cl)cc2)sc1C(=O)c1ccncc1 [Example 360, 1-[2-(4-Chloro-phenylamino)-5-(pyridine-4-carbonyl)-thiazol-4-yl]-3-(4-fluoro-phenyl)-urea]	69.8	–
O=C(c1ccccn1)c1sc(N2CCN(C(=O)c3ccco3)CC2)nc1-c1ccco1 [Example 380, {2-[4-(Furan-2-carbonyl)-piperazin-1-yl]-4-furan-2-yl-thiazol-5-yl}-pyridin-2-yl-methanone]	42	–
O=C(c1ccncc1)c1cc(-c2ccncc2)c(N2CCOCC2)s1 [Example 111, (5-Morpholin-4-yl-4-pyridin-4-yl-thiophen-2-yl)-pyridin-4-yl-methanone]	59.1	–
COc1ccccc1-n1c(-c2cc(-c3ccncc3)c(N3CCOCC3)s2)nc2ccccc2c1=O [Example 298]	–	% Protection P [1, 4]: 42%; NFkB inhibition @ 1 uM [2]: 55
CCOC(=O)Nc1nc(-c2ccccc2)c(C(=O)c2sc(NC(=O)OCC)nc2-c2ccccc2)s1 [Example 131, Diethyl[carbonyl-bis(4-phenyl-1,3-thiazole-5,2-diyl)]biscarbamate]	69.8	–
CS(=O)(=O)c1ccc(C(=O)c2cc(-c3ccccc3)c(N3CCOCC3)s2)cc1 [Example 48, (4-Methylsulfonyl-phenyl)-(5-morpholin-4-yl-4-phenyl-thiophene-2-yl)-methanone]	30	–
O=C(c1cccnc1)c1cc(-c2ccncc2)c(N2CCOCC2)s1 [Example 110, (5-Morpholin-4-yl-4-pyridin-4-yl-thiophen-2-yl)-pyridin-3-yl-methanone]	-6.93	–
Cc1ccccc1-n1c(-c2cc(-c3ccccc3)c(N3CCOCC3)s2)nc2ccccc2c1=O [Example 278, 2-(5-Morpholin-4-yl-4-phenyl-thiophene-2-yl)-3-0-tolyl-3H-quinazolin-4-one]	–	% Protection P [1, 4]: 37%
Cc1nc(NC(=O)c2ccccc2)sc1C(=O)c1sc(NC(=O)c2ccccc2)nc1C [Example 128, Bis-[2-(2-Benzoyl-amino)-4-methyl-thiazole-5-yl]-methanone]	–	% Protection P [1, 6]: 34%
Diphenyl[carbonylbis(4-Benzyl-1,3-thiazole-5,2-diyl)]biscarbamate [Example 395]	–	% Protection P [1, 4]: 66%
Cc1cc(-c2sc(Nc3ccc(Cl)cc3)nc2NC(=O)Nc2ccc(F)cc2)ncc1OCC(F)(F)F [Example 361, 1-{2-(4-Chloro-phenylamino)-5-[4-methyl-5-(2,2,2-trifluoro-ethoxy)-pyridin-2-yl]-thiazol-4-yl}-3-(4-fluoro-phenyl)-urea]	77.9	–
CC(=O)Nc1ccc(-c2cc(C(=O)c3ccc(C)cc3)sc2N2CCOCC2)cc1 [Example 67, N-{4-[5-(4-Methyl-benzoyl)-2-morpholin-4-yl-thiophene-3-yl]-phenyl}-acetamide]	7.67	–
Cc1ccc(C(=O)c2cc(-c3ccc(Cl)cc3)c(N3CCOCC3)s2)cc1 [Example 79, [4-(4-Chloro-phenyl)-5-morpholin-4-yl-thiophen-2-yl]-p-tolyl-methanone]	-31	–
COc1c(C)cc(-c2cc(-c3cccnc3)c(N3CCOCC3)s2)nc1C [Example 88, 4-[5-(5-Methoxy-4,6-dimethyl-pyridin-2-yl)-3-pyridin-3-yl-thiophen-2-yl]-morpholine]	-18.1	–

Compound	inhibition in vivo at 50 mg/kg [1, 5] [%]	further results
O=C(c1ccc(Cl)cc1)c1cc(-c2ccncc2)c(N2CCOCC2)s1 [Example 105, (4-Chloro-phenyl)-(5-morpholin-4-yl-4-pyridin-4-yl-thiophen-2-yl)-methanone]	47.2	–
Nc1nc(Nc2ccccc2)sc1C(=O)c1cccnc1 [Example 327, (4-Amino-2-phenylamino-thiazol-5-yl)-pyridin-3-yl-methanone]	32	–
CS(=O)(=O)c1ccc(-c2cc(C(=O)c3ccc(Cl)cc3Cl)sc2N2CCOCC2)cc1 [Example 58, (2,4-Dichloro-phenyl)-[4-(4-methanesulfonyl-phenyl)-5-morpholin-4-yl-thiophen-2-yl]-methanone]	50	–
CCOC(=O)Nc1nc(C)c(-c2nc3ccccc3c(=O)n2-c2ccc(C(C)=O)cc2)s1 [Example 259, (4-Methyl-5-(4-oxo-3-(4-acetyl-phenyl)-3,4-dihydro-quinazolin-2-yl)-thiazol-2-yl)-carbamic acid ethyl ester]	–	inhibition in vivo at 50 mg/kg [1, 7]: 69.7%
Cc1ccccc1-n1c(-c2cc(-c3ccc(S(C)(=O)=O)cc3)c(N3CCOCC3)s2)nc2ccccc2c1=O [Example 281, 2-[4-(4-Methanesulfonylphenyl)-5-morpholin-4-yl-thiophen-2-yl]-3-o-tolyl-3H-quinazolin-4-one]	50	–
O=C(c1ccncc1)c1cc(-c2cccnc2)c(N2CCOCC2)s1 [Example 99, (5-Morpholin-4-yl-4-pyridin-3-yl-thiophen-2-yl)-pyridin-4-yl-methanone]	26	–
COc1ccc(Nc2nc(N)c(C(=O)c3ccc(NC(C)=O)cc3)s2)cc1 [Example 348, (N-{4-[4-Amino-2-(4-methoxy-phenylamino)-thiazole-5-carbonyl]-phenyl}-acetamide)]	28.3	–
COc1ccccc1-n1c(-c2cc(-c3ccccc3)c(N3CCOCC3)s2)nc2ccccc2c1=O [Example 294, 3-(2-Methoxy-phenyl)-2-(5-morpholin-4-yl-4-phenyl-thiophen-2-yl)-3H-quinazolin-4-one]	34	–
Nc1nc(Nc2ccccc2)sc1C(=O)c1ccc(Cl)cc1Cl [Example 324, (4-Amino-2-phenylamino-thiazol-5-yl)-(2,4-dichloro-phenyl)-methanone]	55	–
CSc1ccc(-c2cc(-c3nc4ccccc4c(=O)n3-c3cccc(C)c3)sc2N2CCOCC2)cc1 [Example 288, 2-[4-(4-Methylsulfanyl-phenyl)-5-morpholin-4-yl-thiophen-2-yl]-3-m-tolyl-3H-quinazolin-4-one]	31	–
Cc1ccccc1-n1c(-c2sc(Nc3ccc(Cl)cc3)nc2C)nc2ccccc2c1=O [Example 170, 2-[2-(4-Chlorophenylamino)-4-methyl-thiazol-5-yl]-3-o-tolyl-3H-quinazolin-4-one]	–	inhibition in vivo at 50 mg/kg [1, 7]: 45%
CC(=O)Nc1ccc(-c2cc(C(=O)c3cc(OCC(F)(F)F)c(C)cn3)sc2N2CCOCC2)cc1 [Example 65, N(4-{5-[5-Methyl-4-(2,2,2-trifluoro-ethoxy)-pyridine-2-carbonyl]-2-morpholin-4-yl-thiophen-3-yl}-phenyl)-acetamide]	–	% Protection P [1, 4]: 30%
COc1ccc(Nc2nc(N)c(C(=O)c3ccc(S(C)(=O)=O)cc3)s2)cc1 [Example 347, ([4-Amino-2-(4-methoxy-phenylamino)-thiazol-5-yl]-(4-methanesulfonyl-phenyl)-methanone)]	30.3	–
Cc1nc(NC(=O)c2ccccc2)sc1C(=O)c1sc(NC(=O)c2ccccc2)nc1C [Example 121, Bis-[2-(2-Benzoyl-amino)-4-methyl-thiazole-5-yl]-methanone]	–	% Protection P [1, 6]: 62%
O=C(c1ccc(Cl)cc1)c1cc(-c2ccccc2)c(N2CCOCC2)s1 [Example 45, (4-Chloro-phenyl)-(5-morpholin-4-yl-4-phenyl-thiophene-2-yl)-methanone]	53.5	–
O=c1c2ccccc2nc(-c2cc(-c3ccccc3)c(N3CCOCC3)s2)n1-c1ccccc1Cl [Example 304, 3-(2-Chlorophenyl)-2-(5-morpholin-4-yl-4-phenyl-thiophen-2-yl)-3H-quinazolin-4-one]	37	–
Bis-(2-methylamino-4-benzayl-thiazole-5-yl)-methanone [Example 132]	–	% Protection P [1, 4]: 47%
Nc1nc(Nc2ccccc2)sc1C(=O)c1ccncc1 [Example 328, (4-Amino-2-phenylamino-thiazol-5-yl)-pyridin-4-yl-methanone]	76	–
CC(=O)Nc1ccc(-c2cc(C(=O)c3ccc(Cl)cc3)sc2N2CCOCC2)cc1 [Example 69, N-{4-[5-(4-Chloro-benzoyl)-2-morpholin-4-yl-thiophene-3-yl]-phenyl}-acetamide]	-21.8	–
